Assay results published in ChEMBL document CHEMBL5465560, “Selectivity Literature for EUbOPEN Chemogenomic Library” (2024).

Experiments:
[1] = molecular target: T1, SNF-related serine/threonine-protein kinase (Homo sapiens) (UniProt Q9NRH2); test: Selectivity interaction (KinomeScan (DiscoverX)) EUB0000666a SNRK; settings: at 10 µM
T1 sequence (whole entry): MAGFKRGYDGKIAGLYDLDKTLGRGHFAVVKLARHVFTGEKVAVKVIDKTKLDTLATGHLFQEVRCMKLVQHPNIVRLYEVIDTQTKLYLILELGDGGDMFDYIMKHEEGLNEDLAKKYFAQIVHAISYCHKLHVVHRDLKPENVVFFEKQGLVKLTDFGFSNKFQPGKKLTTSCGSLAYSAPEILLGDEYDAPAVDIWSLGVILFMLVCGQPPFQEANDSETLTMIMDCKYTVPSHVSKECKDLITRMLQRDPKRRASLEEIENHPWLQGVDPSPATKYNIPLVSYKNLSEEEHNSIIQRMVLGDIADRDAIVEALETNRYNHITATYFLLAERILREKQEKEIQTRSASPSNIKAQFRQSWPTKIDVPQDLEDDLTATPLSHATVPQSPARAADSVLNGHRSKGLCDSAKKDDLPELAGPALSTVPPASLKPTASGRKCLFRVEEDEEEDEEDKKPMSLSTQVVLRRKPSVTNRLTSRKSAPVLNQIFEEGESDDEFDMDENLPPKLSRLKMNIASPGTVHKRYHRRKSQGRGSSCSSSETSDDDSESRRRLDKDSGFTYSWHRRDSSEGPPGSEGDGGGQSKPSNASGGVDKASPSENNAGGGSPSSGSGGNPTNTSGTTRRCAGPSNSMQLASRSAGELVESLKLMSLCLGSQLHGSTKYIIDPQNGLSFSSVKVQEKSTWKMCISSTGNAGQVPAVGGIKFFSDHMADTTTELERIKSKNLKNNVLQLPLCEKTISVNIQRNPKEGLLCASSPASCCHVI

[2] = molecular target: T2, Calcium/calmodulin-dependent protein kinase type IV (Homo sapiens) (UniProt Q16566); test: Selectivity interaction (Kinase panel (KiNativ target engagement assay in Jurkat cells)) EUB0001635a CAMK4; assay type: cell-based; settings: Selectivity number of off-targets 0.0, Selectivity number of targets 233.0, Source Knowledge https://www.sciencedirect.com/science/article/pii/S2451945619300674?via%3Dihub, at 1 µM
T2 sequence (whole entry): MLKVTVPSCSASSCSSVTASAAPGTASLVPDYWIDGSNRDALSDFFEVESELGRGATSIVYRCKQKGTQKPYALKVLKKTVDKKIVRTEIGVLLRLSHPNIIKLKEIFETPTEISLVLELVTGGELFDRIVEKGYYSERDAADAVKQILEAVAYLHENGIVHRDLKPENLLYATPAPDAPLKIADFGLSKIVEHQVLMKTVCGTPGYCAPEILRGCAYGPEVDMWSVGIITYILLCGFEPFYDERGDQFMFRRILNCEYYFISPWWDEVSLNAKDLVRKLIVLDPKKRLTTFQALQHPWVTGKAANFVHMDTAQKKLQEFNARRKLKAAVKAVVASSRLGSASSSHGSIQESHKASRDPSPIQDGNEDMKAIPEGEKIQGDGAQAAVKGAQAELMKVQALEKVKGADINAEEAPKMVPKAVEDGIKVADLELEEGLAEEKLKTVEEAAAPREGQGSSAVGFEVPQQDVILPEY

[3] = molecular target: Activin receptor type-1-like (Homo sapiens) (UniProt P37023); settings: at 10 µM
Chain of Activin receptor type-1-like (Homo sapiens) (P37023 whole entry): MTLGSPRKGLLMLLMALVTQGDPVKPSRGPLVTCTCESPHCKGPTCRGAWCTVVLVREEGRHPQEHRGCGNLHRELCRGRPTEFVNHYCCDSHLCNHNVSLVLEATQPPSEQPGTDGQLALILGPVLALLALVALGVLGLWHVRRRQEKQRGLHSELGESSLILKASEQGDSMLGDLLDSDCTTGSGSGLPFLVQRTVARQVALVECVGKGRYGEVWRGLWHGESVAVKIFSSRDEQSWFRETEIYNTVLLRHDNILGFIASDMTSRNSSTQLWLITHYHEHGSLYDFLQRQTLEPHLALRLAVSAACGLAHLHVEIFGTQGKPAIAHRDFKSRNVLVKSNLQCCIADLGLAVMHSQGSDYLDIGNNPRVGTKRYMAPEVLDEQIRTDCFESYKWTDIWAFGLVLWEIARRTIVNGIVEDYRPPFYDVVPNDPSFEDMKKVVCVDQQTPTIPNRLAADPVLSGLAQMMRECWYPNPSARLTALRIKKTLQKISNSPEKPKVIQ

[4] = molecular target: Dual specificity mitogen-activated protein kinase kinase 1 (Homo sapiens, UniProt Q02750); test: Selectivity interaction (ActivX KiNativ screen (kinase selectivity in THP-1 cell lysates)) EUB0000639a MAP2K1; assay type: subcellular; settings: lysate, at 0.2 µM
Chain of Dual specificity mitogen-activated protein kinase kinase 1 (Q02750 whole entry): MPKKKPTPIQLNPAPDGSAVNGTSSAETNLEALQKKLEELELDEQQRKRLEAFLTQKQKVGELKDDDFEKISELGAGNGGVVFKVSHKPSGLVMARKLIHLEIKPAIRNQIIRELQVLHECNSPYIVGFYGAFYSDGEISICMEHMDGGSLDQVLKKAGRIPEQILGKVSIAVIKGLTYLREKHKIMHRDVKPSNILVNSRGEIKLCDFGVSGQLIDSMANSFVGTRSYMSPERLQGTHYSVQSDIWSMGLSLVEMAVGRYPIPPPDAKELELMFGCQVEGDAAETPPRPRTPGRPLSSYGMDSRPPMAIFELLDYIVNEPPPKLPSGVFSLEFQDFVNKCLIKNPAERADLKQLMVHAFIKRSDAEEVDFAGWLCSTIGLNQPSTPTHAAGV

[5] = molecular target: Mitogen-activated protein kinase 9 (Homo sapiens, UniProt P45984); test: Selectivity interaction (Kinase panel (Invitrogen)) EUB0000639a MAPK9; settings: at 200 nM
Chain of Mitogen-activated protein kinase 9 (P45984 whole entry, looked up): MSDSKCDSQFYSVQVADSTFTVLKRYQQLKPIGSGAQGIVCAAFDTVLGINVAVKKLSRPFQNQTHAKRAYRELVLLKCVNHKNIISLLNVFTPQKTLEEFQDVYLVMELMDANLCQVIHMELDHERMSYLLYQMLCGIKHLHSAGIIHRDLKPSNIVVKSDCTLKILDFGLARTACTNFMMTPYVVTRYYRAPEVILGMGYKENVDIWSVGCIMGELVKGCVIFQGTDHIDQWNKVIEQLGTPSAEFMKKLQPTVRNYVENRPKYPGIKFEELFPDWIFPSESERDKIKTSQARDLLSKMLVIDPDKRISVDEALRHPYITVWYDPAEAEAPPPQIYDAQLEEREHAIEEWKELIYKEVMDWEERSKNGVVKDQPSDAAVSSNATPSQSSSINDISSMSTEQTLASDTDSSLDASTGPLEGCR

[6] = molecular target: Cyclin-dependent kinase 11B (Homo sapiens) (UniProt P21127); test: Selectivity interaction (KinomeScan (DiscoverX)) EUB0000618a CDK11B; settings: at 10 µM
Chain of Cyclin-dependent kinase 11B (Homo sapiens) (P21127 whole entry): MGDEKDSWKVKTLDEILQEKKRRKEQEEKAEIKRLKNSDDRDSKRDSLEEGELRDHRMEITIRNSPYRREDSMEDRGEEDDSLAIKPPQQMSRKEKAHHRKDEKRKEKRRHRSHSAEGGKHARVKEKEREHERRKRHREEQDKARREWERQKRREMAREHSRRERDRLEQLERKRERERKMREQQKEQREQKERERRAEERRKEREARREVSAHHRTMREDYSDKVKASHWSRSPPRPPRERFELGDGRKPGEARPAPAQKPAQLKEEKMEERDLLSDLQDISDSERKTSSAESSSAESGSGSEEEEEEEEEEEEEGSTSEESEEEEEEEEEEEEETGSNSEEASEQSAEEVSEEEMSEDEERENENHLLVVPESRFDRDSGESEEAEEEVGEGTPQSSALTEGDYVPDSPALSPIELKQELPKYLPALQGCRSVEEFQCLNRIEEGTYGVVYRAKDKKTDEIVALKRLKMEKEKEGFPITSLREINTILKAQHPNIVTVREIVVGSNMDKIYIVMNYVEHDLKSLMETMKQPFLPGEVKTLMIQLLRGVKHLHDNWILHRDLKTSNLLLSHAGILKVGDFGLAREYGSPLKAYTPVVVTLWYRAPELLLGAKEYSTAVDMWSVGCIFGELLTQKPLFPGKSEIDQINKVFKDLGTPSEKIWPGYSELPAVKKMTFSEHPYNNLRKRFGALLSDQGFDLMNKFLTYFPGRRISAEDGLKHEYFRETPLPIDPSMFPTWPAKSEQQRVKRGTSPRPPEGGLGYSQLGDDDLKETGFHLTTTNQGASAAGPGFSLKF

[7] = molecular target: Cyclin-dependent kinase-like 3 (Homo sapiens) (UniProt Q8IVW4); test: Selectivity interaction (KinomeScan (DiscoverX)) EUB0000618a CDKL3; settings: at 10 µM
Chain of Cyclin-dependent kinase-like 3 (Homo sapiens) (Q8IVW4 whole entry, looked up): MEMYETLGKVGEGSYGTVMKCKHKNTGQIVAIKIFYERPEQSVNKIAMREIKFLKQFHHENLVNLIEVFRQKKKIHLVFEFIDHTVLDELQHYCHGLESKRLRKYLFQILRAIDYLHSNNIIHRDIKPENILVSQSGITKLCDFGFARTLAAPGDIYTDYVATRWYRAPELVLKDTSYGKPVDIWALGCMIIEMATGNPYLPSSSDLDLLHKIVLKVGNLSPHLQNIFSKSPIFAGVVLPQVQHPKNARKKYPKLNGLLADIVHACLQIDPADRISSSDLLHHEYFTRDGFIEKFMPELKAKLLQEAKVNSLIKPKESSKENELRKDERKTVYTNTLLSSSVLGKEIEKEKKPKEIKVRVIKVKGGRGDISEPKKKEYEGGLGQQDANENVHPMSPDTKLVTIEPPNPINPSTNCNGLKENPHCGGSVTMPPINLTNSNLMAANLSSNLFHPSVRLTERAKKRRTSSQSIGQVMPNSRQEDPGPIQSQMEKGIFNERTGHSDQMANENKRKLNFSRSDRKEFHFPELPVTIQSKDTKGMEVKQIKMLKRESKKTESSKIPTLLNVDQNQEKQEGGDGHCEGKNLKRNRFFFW

[8] = molecular target: Serine/threonine-protein kinase NIM1 (Homo sapiens, UniProt Q8IY84); test: Selectivity interaction (KinomeScan (DiscoverX)) EUB0000618a NIM1K; settings: at 10 µM
Chain of Serine/threonine-protein kinase NIM1 (Q8IY84 whole entry): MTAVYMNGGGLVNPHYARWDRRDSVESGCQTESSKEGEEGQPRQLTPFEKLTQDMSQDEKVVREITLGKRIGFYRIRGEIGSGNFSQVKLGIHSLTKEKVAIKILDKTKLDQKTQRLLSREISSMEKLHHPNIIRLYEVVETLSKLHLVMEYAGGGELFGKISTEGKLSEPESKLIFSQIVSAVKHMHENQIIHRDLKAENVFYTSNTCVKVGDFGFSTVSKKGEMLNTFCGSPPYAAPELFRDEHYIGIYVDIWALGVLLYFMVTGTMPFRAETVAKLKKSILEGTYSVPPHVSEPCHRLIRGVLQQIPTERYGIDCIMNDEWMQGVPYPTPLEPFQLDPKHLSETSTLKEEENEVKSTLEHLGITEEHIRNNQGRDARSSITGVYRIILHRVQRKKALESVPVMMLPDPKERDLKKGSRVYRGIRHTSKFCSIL

[9] = molecular target: Serine/threonine-protein kinase OSR1 (Homo sapiens) (UniProt O95747); test: Selectivity interaction (KinomeScan (DiscoverX)) EUB0001619a OXSR1; settings: at 1 µM
Chain of Serine/threonine-protein kinase OSR1 (Homo sapiens) (O95747 2-527 limits assumed): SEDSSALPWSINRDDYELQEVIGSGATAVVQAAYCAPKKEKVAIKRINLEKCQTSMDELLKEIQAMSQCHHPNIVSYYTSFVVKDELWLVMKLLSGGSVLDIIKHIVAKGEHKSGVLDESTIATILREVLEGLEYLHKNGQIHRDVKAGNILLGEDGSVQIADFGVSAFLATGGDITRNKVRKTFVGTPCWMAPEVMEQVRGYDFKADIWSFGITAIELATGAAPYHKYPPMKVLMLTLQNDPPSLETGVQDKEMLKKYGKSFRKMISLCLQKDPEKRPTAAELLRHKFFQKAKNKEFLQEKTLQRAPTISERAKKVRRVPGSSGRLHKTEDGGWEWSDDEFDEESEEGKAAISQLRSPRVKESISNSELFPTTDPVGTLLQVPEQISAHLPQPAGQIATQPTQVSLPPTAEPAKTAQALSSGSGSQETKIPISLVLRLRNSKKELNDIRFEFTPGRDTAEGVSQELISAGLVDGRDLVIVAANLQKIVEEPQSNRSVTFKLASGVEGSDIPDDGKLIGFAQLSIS

[10] = molecular target: T3, Myosin light chain kinase family member 4 (Homo sapiens) (UniProt Q86YV6); test: Selectivity interaction (KinomeScan (DiscoverX)) EUB0000655a MYLK4; settings: at 10 µM
T3 sequence (whole entry): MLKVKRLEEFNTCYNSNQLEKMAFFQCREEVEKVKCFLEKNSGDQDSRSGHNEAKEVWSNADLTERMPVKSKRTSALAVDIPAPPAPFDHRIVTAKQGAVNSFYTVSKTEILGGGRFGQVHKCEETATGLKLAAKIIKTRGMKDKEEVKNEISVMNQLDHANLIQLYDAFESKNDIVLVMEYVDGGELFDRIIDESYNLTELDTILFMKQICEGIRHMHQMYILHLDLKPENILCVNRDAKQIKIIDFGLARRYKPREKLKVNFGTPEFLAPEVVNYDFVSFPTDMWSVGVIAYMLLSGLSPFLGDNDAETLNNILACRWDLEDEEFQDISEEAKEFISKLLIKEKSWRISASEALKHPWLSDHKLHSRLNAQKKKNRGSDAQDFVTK

For `O=C(NOC[C@H](O)CO)c1ccc(F)c(F)c1Nc1ccc(I)cc1F`, the % of control [1] was 100%.
Compound `C=CC(=O)Nc1ccc(C(=O)Nc2[nH]nc3c2CN(C(=O)N[C@H](CN(C)C)c2ccccc2)C3(C)C)cc1` has a % of engagement [2] of -8.6%.
Compound `CCN(CC)CCCCNc1ncc2cc(-c3cc(OC)cc(OC)c3)c(NC(=O)NC(C)(C)C)nc2n1` has a % of control [3] of 100%.
For `CC[C@@H]1[C@H](F)C(=O)N[C@@H]1COc1nccc2cc(C(N)=O)c(OC)cc12` [ZIMLOVISERTIB], the % of inhibition [4] was 3.9% and the % of inhibition [5] was 0.603%.
`O[C@H]1CC[C@H](Nc2ncc3nc(Nc4c(F)cc(F)cc4F)n([C@H]4CCOC4)c3n2)CC1` showed a % of control [6] of 91%, a % of control [7] of 86% and a % of control [8] of 100%.
With `N#Cc1cccc(-c2c[nH]c3ncnc(N4CCOCC4)c23)c1` the % of control [9] was 90%.
For `CN(C)CCOc1ccc(-c2nc(-c3ccncc3)c(-c3ccc4c(c3)CC/C4=N\O)[nH]2)cc1`, the % of control [10] was 98%.
